Read-outs that look alike come from different tables or passages of the source.

In test [1] the target is T1, Fabrazyme = commercial recombinant lysosomal α-galactosidase (GH27) (Homo sapiens, UniProt P06280).
T1 construct: purchased
T1 sequence (P06280 32-429): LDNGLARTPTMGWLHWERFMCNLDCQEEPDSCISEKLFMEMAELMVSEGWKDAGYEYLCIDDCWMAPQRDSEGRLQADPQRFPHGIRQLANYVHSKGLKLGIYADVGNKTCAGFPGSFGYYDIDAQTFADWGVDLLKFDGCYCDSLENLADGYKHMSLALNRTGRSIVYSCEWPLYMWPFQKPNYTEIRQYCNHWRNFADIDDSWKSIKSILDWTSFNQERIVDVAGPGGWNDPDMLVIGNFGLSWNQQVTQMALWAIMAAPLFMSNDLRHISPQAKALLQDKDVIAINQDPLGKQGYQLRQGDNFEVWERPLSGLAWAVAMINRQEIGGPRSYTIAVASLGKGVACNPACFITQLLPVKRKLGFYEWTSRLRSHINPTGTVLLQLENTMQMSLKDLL
The experiment in a line: Ki determination, Fabrazyme (acid α-galactosidase). Type of test: biochemical. As to conditions: 37 °C, pH 5.5, substrate 2,4-DNP α-Gal. How it is done:
(§1) Kinetic studies were performed at 37 °C in an appropriate buffer (specific conditions depicted below). In a typical assay, the enzyme was incubated with different inhibitor concentrations for up to 5 min before initiating the reaction by the addition of substrate. The initial reaction rate was measured by monitoring the increase in absorbance at 400 nm for up to ten minutes using a Cary4000 (Varian, Palo Alto, CA, USA). Ki determinations were performed using at least two different substrate concentrations. For each inhibitor, a range of four to six inhibitor concentrations bracketing the ultimately determined Ki value was used for each substrate concentration. Dixon plots (1/v vs. [I]) were constructed to validate the use of competitive inhibition model. The data were then fit using non-linear regression analysis with Grafit 7.0 [Erithacus Software, UK].
(§2) n.i. stands for no inhibition or weak inhibition with an estimated Ki value higher than 1 mM.
Fabrazyme (Acid α-galactosidase): 20 mM sodium citrate, 50 mM sodium phosphate, 1.0 mM tetrasodium EDTA, 0.25% v/v Triton X-100® and 0.25% w/v taurocholic acid buffer (pH 5.5). Substrate: 2,4-DNP α-Gal, Km = 0.65 mM.

Test [2] has as its target α-glucosidase from S. cerevisiae (GH13). The experiment in a line: Ki determination, S. cerevisiae α-glucosidase. Type of test: biochemical. To be noted: 37 °C, pH 7.0, substrate pNP α-Glc; read-out: Ki S. cer. (α-Glc) (GH13). How it is done: as §1, with “UK]. […] S. cerevisiae α-Glucosidase: 50 mM sodium phosphate buffer (pH 7.0).” for “UK].”
Test [3] addresses T2, β-galactosidase from bovine liver (GH35) (Bos taurus, UniProt Q58D55).
T2 construct: Bovine liver β-galactosidase; from tissue; host or cells: bovine liver
T2 sequence (Q58D55 28-653): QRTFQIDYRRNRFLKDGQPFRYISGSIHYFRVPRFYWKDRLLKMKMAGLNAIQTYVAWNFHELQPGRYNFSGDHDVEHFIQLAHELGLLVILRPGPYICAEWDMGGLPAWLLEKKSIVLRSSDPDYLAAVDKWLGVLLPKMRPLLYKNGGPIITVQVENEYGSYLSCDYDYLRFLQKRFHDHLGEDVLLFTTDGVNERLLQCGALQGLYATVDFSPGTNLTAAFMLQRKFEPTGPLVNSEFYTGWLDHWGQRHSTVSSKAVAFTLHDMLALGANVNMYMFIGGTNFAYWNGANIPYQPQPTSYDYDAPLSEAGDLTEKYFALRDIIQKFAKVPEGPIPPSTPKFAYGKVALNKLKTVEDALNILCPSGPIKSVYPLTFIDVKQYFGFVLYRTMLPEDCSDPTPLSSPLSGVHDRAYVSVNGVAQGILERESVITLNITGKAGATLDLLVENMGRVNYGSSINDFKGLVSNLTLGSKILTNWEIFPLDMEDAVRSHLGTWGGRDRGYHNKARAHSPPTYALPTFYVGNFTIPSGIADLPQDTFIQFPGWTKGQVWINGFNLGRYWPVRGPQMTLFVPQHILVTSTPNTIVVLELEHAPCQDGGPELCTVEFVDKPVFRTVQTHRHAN
Put plainly: Ki determination, bovine liver β-galactosidase. The class given is biochemical. To be noted: for Ki: 37 °C, pH 7, substrate pNP β-Gal; for fold weaker binding than 17, bovine liver β-galactosidase: compared with hydroxylated inhibitor 17. How it is done: as §1, §2
Bovine liver β-galactosidase: 50 mM sodium phosphate buffer (pH 7). Substrate: pNP β-Gal, Km = 0.65 mM.

The target of test [4] is T3, recombinant human lysosomal β-glucocerebrosidase (GCase, GH30) (Homo sapiens, UniProt P04062).
T3 sequence (P04062 40-536): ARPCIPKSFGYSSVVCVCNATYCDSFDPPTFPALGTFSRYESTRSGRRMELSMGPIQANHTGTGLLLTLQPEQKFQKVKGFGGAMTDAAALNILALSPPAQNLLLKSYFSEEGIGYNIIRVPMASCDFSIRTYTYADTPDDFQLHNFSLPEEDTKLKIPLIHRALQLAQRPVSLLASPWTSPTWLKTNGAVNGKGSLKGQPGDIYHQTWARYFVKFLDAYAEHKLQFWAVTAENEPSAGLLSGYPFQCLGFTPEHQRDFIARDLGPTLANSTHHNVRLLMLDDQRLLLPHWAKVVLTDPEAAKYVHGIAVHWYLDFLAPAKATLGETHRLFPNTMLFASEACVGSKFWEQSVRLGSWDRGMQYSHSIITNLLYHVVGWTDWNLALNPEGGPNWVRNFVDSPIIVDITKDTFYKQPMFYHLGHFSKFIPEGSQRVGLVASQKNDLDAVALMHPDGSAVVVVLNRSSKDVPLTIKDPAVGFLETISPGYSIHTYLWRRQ
Put plainly: Ki determination, GCase (β-glucocerebrosidase). The class given is biochemical. As to conditions: 37 °C, pH 7, substrate 2,4-DNP β-Glc. The method, then:
as §1, §2
GCase (β-glucocerebrosidase): 20 mM sodium citrate, 50 mM sodium phosphate, 1.0 mM tetrasodium EDTA, 0.25% v/v Triton X-100® and 0.25% w/v taurocholic acid buffer (pH 7). Substrate: 2,4-DNP β-Glc, Km = 2.7 mM.

The target in test [5] is α-glucosidase from S. cerevisiae (GH13). As to conditions: read-out: Ki S. cer. (α-Glc) (GH13); cited from earlier work.
In test [6] the target is T2, β-galactosidase from bovine liver (GH35). As to conditions: read-out: Ki Bovine liver (β-Gal) (GH35); cited from earlier work.

With `CN(C)c1cccc2c(S(=O)(=O)NCCCCCC[C@H]3NC[C@@H](O)[C@@H](O)[C@H]3CO)cccc12` [Compound 22], the Ki (usually a dissociation constant, usually derived from enzyme kinetics or from competition with a known ligand) was over 1000 µM in test [1], over 1000 µM in test [2], 0.0005 µM in test [3] and 0.003 µM in test [4].
For the molecule `CN(C)c1cccc2c(S(=O)(=O)NCCCCCCN[C@H]3[C@H](F)[C@@H](O)[C@@H](O)[C@H]3CO)cccc12` [Compound 37, (1S,2S,3S,4R,5R)-4-(6′-Dansylaminohexyl)amino-3-fluoro-5-hydroxymethylcyclopentane-1,2-diol], the Ki in test [1] was over 1000 µM; in test [2] it was 22.5 µM; in test [3], 0.137 µM; in test [4], 3 µM. Moreover, the “fold weaker binding than 17, bovine liver β-galactosidase” value in test [3] was “more than 12 fold”.
Regarding `CN(C)c1cccc2c(S(=O)(=O)NCCCCCCN[C@H]3[C@H](O)[C@@H](O)[C@@H](O)[C@H]3CO)cccc12` [Compound 17], the inhibition constant (Ki) in test [5] was over 1000 µM.
With `CCCCCCCCN[C@H]1[C@H](O)[C@@H](O)[C@@H](O)[C@H]1CO` [Compound 16], the Ki in test [1] was over 1000 µM; in test [2] it was over 1000 µM; in test [3], 0.117 µM; in test [4], 0.0639 µM.
In the case of `CCCCCCCCNC1C=C(CO)C(O)C(O)C1O` (stereo not drawn) [Compound 1, N-octyl-epi-valienamine], the Ki is over 1000 µM in test [1], 0.87 µM in test [6], over 1000 µM in test [2] and 83 µM in test [4].
With `CN(C)c1cccc2c(S(=O)(=O)NCCCCCC[C@@H]3NC[C@@H](O)[C@@H](O)[C@H]3CO)cccc12` [Compound 14], the values for the Ki in test [5] and in test [6] were over 1000 µM and 0.0014 µM, respectively.
On to `CN(C)c1cccc2c(S(=O)(=O)NCCCCCCN[C@H]3C[C@@H](O)[C@@H](O)[C@H]3CO)cccc12` [Compound 31, (1R,2S,3R,4S)-3-Hydroxymethyl-4-(6′-dansylaminohexylamino)cyclopentane-1,2-diol], for which the Ki in test [1] was over 1000 µM; in test [2], over 1000 µM; in test [3], 0.102 µM; in test [4] it was 22.6 µM. The “fold weaker binding than 17, bovine liver β-galactosidase” value in test [3] is about 20 fold. In test [3] (corresponding to the 20 fold Ki difference 31 vs 17), the “binding energy difference to 17, bovine β-galactosidase” value is about 2 kcal/mol.

The values above are taken from publication PMC7504770, “Mechanistic Insights into the Chaperoning of Human Lysosomal-Galactosidase Activity: Highly Functionalized Aminocyclopentanes and C-5a-Substituted Derivatives of 4-epi-Isofagomine” (Molecules, 2020).
